Reference: patent US6737383B1, “Herbicidal oxadiazolidines” (priority 1999, dated 2004)

Columns and labels:
bedstraw = assay: Test B pre/postemergence bedstraw; assay type: in vivo, Galium aparine
How it was run: (§1)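 Response is a visual 0-to-10 score relative to untreated plants, where 0 means no effect and 10 means complete control, taken twelve to sixteen days after application. Treatments went onto soil at planting and onto foliage of 1- to 4-leaf plants, using a surfactant-containing non-phytotoxic solvent.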

blackgrass = assay: Test B pre/postemergence blackgrass; assay type: in vivo, Alopecurus myosuroides
Excerpt: (§2) Seeds of bedstraw (Galium aparine), blackgrass (Alopecurus myosuroides), surinam grass (Brachiaria decumbens), cocklebur (Xanthium strumarium), corn (Zea mays), crabgrass (Digitaria sanguinalis), giant foxtail (Setaria faberii), morningglory (Ipomoea hederacea), pigweed (Amaranthus retroflexus), rape (Brassica napus), soybean (Glycine max), sugar beet (Beta vulgaris), velvetleaf (Abutilon theophrasti), wheat (Triticum aestivum), wild oat (Avena fatua) and purple nutsedge (Cyperus rotundus) tubers were planted and treated preemnergence with test chemicals formulated in a non-phytotoxic solvent mixture which included a surfactant.
(§3) At the same time, these crop and weed species were also treated with postemergence applications of test chemicals formulated in the same manner. Plants ranged in height from 2 to 18 cm (1- to 4-leaf stage) for postemergence treatments. Plant species in the flood test consisted of rice (Oryza sativa), smallflower flatsedge (Cyperus difformis), duck salad (Heteranthera limosa) and bamyardgrass (Echinochloa crus-galli) grown to the 2-leaf stage for testing. Treated plants and controls were maintained in a greenhouse for twelve to sixteen days, after which all species were compared to controls and visually evaluated. Plant response ratings, summarized in Table B, are based on a scale of 0 to 10 where 0 is no effect and 10 is complete control. A dash (−) response means no test result.

surinam grass = assay: Test B pre/postemergence surinam grass; assay type: in vivo, Brachiaria decumbens
Excerpt: as §2, §3

cocklebur = assay: Test B pre/postemergence cocklebur; assay type: in vivo, Xanthium strumarium
How it was run: as §1

corn = assay: Test B pre/postemergence corn; assay type: in vivo, Zea mays
Excerpt: as §2, §3

crabgrass = assay: Test B pre/postemergence crabgrass; assay type: in vivo, Digitaria sanguinalis
Excerpt: as §2, §3

giant foxtail = assay: Test B pre/postemergence giant foxtail; assay type: in vivo, Setaria faberii
How it was run: as §1

morningglory = assay: Test B pre/postemergence morningglory; assay type: in vivo, Ipomoea hederacea
Excerpt: as §2, §3

pigweed = assay: Test B pre/postemergence pigweed; assay type: in vivo, Amaranthus retroflexus
Excerpt: as §2, §3

rape = assay: Test B pre/postemergence rape; assay type: in vivo, Brassica napus
Excerpt: as §2, §3

soybean = assay: Test B pre/postemergence soybean; assay type: in vivo, Glycine max
How it was run: as §1

sugar beet = assay: Test B pre/postemergence sugar beet; assay type: in vivo, Beta vulgaris
How it was run: as §1

velvetleaf = assay: Test B pre/postemergence velvetleaf; assay type: in vivo, Abutilon theophrasti
How it was run: as §1

wheat = assay: Test B pre/postemergence wheat; assay type: in vivo, Triticum aestivum
Excerpt: as §2, §3

wild oat = assay: Test B pre/postemergence wild oat; assay type: in vivo, Avena fatua
How it was run: as §1

purple nutsedge = assay: Test B pre/postemergence purple nutsedge; assay type: in vivo, Cyperus rotundus
Excerpt: as §2, §3

[1] = Preemergence, Rate 62 g/ha, scale of 0 to 10 where 0 is no effect and 10 is complete control
[2] = Preemergence, Rate 250 g/ha, scale of 0 to 10 where 0 is no effect and 10 is complete control
[3] = Preemergence, Rate 500 g/ha, scale of 0 to 10 where 0 is no effect and 10 is complete control
[4] = Rate 62 g/ha, Postemergence, scale of 0 to 10 where 0 is no effect and 10 is complete control
[5] = Rate 125 g/ha, Postemergence, scale 0 to 10
[6] = Rate 125 g/ha, Preemergence, scale of 0 to 10 where 0 is no effect and 10 is complete control
[7] = Rate 500 g/ha, Postemergence, scale 0 to 10, 0 no effect, 10 complete control

Question: How did the “Bedstraw plant response rating” value (bedstraw; [1]) turn out when `COC(=O)C=CCn1c(=O)on(C(=O)N(c2ccc(F)cc2)C(C)C)c1=O` [Compound 263] was run?
Answer: 0

Question: What about the “Bedstraw plant response rating” value (bedstraw; [2]) of the same compound?
Answer: 0

Question: And the “Plant response rating, Bedstraw” value (bedstraw; [3])?
Answer: 0

Question: What about the “Bedstraw plant response rating” value (bedstraw; [4]) of the same compound?
Answer: 0

Question: And the “Bedstraw plant response rating” value (bedstraw; [5])?
Answer: 0

Question: And the “Bedstraw plant response rating” value (bedstraw; [6])?
Answer: 0

Question: And the “Blackgrass plant response rating” value (blackgrass; [1])?
Answer: 0

Question: What about the “Blackgrass plant response rating” value (blackgrass; [2]) of the same compound?
Answer: 0

Question: What about the “Plant response rating, Blackgrass” value (blackgrass; [3]) of the same compound?
Answer: 0

Question: What about the “Blackgrass plant response rating” value (blackgrass; [4]) of the same compound?
Answer: 0

Question: And the “Blackgrass plant response rating” value (blackgrass; [5])?
Answer: 0

Question: What about the “Blackgrass plant response rating” value (blackgrass; [6]) of the same compound?
Answer: 0

Question: And the “Plant response rating (0 to 10; 0 is no effect, 10 is complete control), Blackgrass” value (blackgrass; Rate 250 g/ha, Postemergence)?
Answer: 3

Question: And the “Blackgrass plant response rating” value (blackgrass; [7])?
Answer: 5

Question: What about the “B. signalgrass plant response rating” value (surinam grass; [1]) of the same compound?
Answer: 0

Question: What about the “B. signalgrass plant response rating” value (surinam grass; [2]) of the same compound?
Answer: 0

Question: And the “Plant response rating, B. signalgrass” value (surinam grass; [3])?
Answer: 0

Question: And the “B. signalgrass plant response rating” value (surinam grass; [4])?
Answer: 0

Question: What about the “B. signalgrass plant response rating” value (surinam grass; Rate 125 g/ha, Postemergence, scale 0 (no effect) to 10 (complete control)) of the same compound?
Answer: 0

Question: What about the “B. signalgrass plant response rating” value (surinam grass; [6]) of the same compound?
Answer: 0

Question: And the “Plant response rating (0 to 10; 0 is no effect, 10 is complete control), B. signalgrass” value (surinam grass; Rate 250 g/ha, Postemergence)?
Answer: 0

Question: And the “B. signalgrass plant response rating” value (surinam grass; [7])?
Answer: 0

Question: And the “Cocklebur plant response rating” value (cocklebur; [1])?
Answer: 0

Question: What about the “Cocklebur plant response rating” value (cocklebur; [2]) of the same compound?
Answer: 0

Question: And the “Cocklebur plant response rating” value (cocklebur; [4])?
Answer: 0

Question: And the “Cocklebur plant response rating” value (cocklebur; [5])?
Answer: 0

Question: And the “Cocklebur plant response rating” value (cocklebur; [6])?
Answer: 0

Question: And the “Plant response rating (0 to 10; 0 is no effect, 10 is complete control), Cocklebur” value (cocklebur; Rate 250 g/ha, Postemergence)?
Answer: 0

Question: What about the “Cocklebur plant response rating” value (cocklebur; [7]) of the same compound?
Answer: 0

Question: What about the “Corn plant response rating” value (corn; [1]) of the same compound?
Answer: 0

Question: What about the “Corn plant response rating” value (corn; [2]) of the same compound?
Answer: 0

Question: And the “Plant response rating, Corn” value (corn; [3])?
Answer: 0

Question: And the “Corn plant response rating” value (corn; [4])?
Answer: 0

Question: And the “Corn plant response rating” value (corn; [5])?
Answer: 0

Question: And the “Corn plant response rating” value (corn; [6])?
Answer: 0

Question: And the “Plant response rating (0 to 10; 0 is no effect, 10 is complete control), Corn” value (corn; Rate 250 g/ha, Postemergence)?
Answer: 0

Question: What about the “Corn plant response rating” value (corn; [7]) of the same compound?
Answer: 0

Question: And the “Crabgrass plant response rating” value (crabgrass; [1])?
Answer: 0

Question: And the “Crabgrass plant response rating” value (crabgrass; [2])?
Answer: 0

Question: And the “Plant response rating, Crabgrass” value (crabgrass; [3])?
Answer: 2

Question: And the “Crabgrass plant response rating” value (crabgrass; [6])?
Answer: 0

Question: What about the “Plant response rating (0 to 10; 0 is no effect, 10 is complete control), Crabgrass” value (crabgrass; Rate 250 g/ha, Postemergence) of the same compound?
Answer: 0

Question: And the “Crabgrass plant response rating” value (crabgrass; [7])?
Answer: 2

Question: What about the “Giant foxtail plant response rating” value (giant foxtail; [1]) of the same compound?
Answer: 2

Question: And the “Giant foxtail plant response rating” value (giant foxtail; [2])?
Answer: 9

Question: And the “Plant response rating, Giant foxtail” value (giant foxtail; [3])?
Answer: 9

Question: And the “Giant foxtail plant response rating” value (giant foxtail; [6])?
Answer: 9

Question: What about the “Plant response rating (0 to 10; 0 is no effect, 10 is complete control), Giant foxtail” value (giant foxtail; Rate 250 g/ha, Postemergence) of the same compound?
Answer: 0

Question: And the “Giant foxtail plant response rating” value (giant foxtail; [7])?
Answer: 3

Question: What about the “Morningglory plant response rating” value (morningglory; [1]) of the same compound?
Answer: 0

Question: And the “Morningglory plant response rating” value (morningglory; [2])?
Answer: 0

Question: What about the “Plant response rating, Morningglory” value (morningglory; [3]) of the same compound?
Answer: 0

Question: What about the “Morningglory plant response rating” value (morningglory; [6]) of the same compound?
Answer: 0

Question: And the “Plant response rating (0 to 10; 0 is no effect, 10 is complete control), Morningglory” value (morningglory; Rate 250 g/ha, Postemergence)?
Answer: 4

Question: What about the “Morningglory plant response rating” value (morningglory; [7]) of the same compound?
Answer: 7

Question: And the “Redroot pigweed plant response rating” value (pigweed; [1])?
Answer: 0

Question: What about the “Redroot pigweed plant response rating” value (pigweed; [2]) of the same compound?
Answer: 0

Question: And the “Plant response rating, Redroot pigweed” value (pigweed; [3])?
Answer: 0

Question: What about the “Redroot pigweed plant response rating” value (pigweed; [6]) of the same compound?
Answer: 0

Question: And the “Plant response rating (0 to 10; 0 is no effect, 10 is complete control), Redroot pigweed” value (pigweed; Rate 250 g/ha, Postemergence)?
Answer: 0

Question: What about the “Redroot pigweed plant response rating” value (pigweed; [7]) of the same compound?
Answer: 0

Question: What about the “Rape plant response rating” value (rape; [1]) of the same compound?
Answer: 0

Question: What about the “Rape plant response rating” value (rape; [2]) of the same compound?
Answer: 0

Question: What about the “Plant response rating, Rape” value (rape; [3]) of the same compound?
Answer: 0

Question: What about the “Rape plant response rating” value (rape; [6]) of the same compound?
Answer: 0

Question: What about the “Plant response rating (0 to 10; 0 is no effect, 10 is complete control), Rape” value (rape; Rate 250 g/ha, Postemergence) of the same compound?
Answer: 0

Question: What about the “Rape plant response rating” value (rape; [7]) of the same compound?
Answer: 0

Question: And the “Soybean plant response rating” value (soybean; [1])?
Answer: 0

Question: What about the “Soybean plant response rating” value (soybean; [2]) of the same compound?
Answer: 0

Question: And the “Plant response rating, Soybean” value (soybean; [3])?
Answer: 0

Question: What about the “Soybean plant response rating” value (soybean; [6]) of the same compound?
Answer: 0

Question: And the “Soybean plant response rating” value (soybean; [7])?
Answer: 1

Question: And the “Sugarbeets plant response rating” value (sugar beet; [1])?
Answer: 0

Question: And the “Sugarbeets plant response rating” value (sugar beet; [2])?
Answer: 0

Question: What about the “Plant response rating, Sugarbeets” value (sugar beet; [3]) of the same compound?
Answer: 0

Question: What about the “Sugarbeets plant response rating” value (sugar beet; [6]) of the same compound?
Answer: 0

Question: And the “Sugarbeets plant response rating” value (sugar beet; [7])?
Answer: 0

Question: And the “Velvetleaf plant response rating” value (velvetleaf; [1])?
Answer: 0

Question: What about the “Velvetleaf plant response rating” value (velvetleaf; [2]) of the same compound?
Answer: 0

Question: What about the “Plant response rating, Velvetleaf” value (velvetleaf; [3]) of the same compound?
Answer: 3

Question: And the “Velvetleaf plant response rating” value (velvetleaf; [6])?
Answer: 0

Question: And the “Velvetleaf plant response rating” value (velvetleaf; [7])?
Answer: 2

Question: What about the “Wheat plant response rating” value (wheat; [1]) of the same compound?
Answer: 0

Question: And the “Wheat plant response rating” value (wheat; [2])?
Answer: 0

Question: What about the “Plant response rating, Wheat” value (wheat; [3]) of the same compound?
Answer: 0

Question: What about the “Wheat plant response rating” value (wheat; [6]) of the same compound?
Answer: 0

Question: And the “Wheat plant response rating” value (wheat; [7])?
Answer: 2

Question: And the “Wild oats plant response rating” value (wild oat; [1])?
Answer: 0

Question: And the “Wild oats plant response rating” value (wild oat; [2])?
Answer: 0

Question: What about the “Plant response rating, Wild oats” value (wild oat; [3]) of the same compound?
Answer: 0

Question: And the “Wild oats plant response rating” value (wild oat; [6])?
Answer: 0

Question: And the “Wild oats plant response rating” value (wild oat; [7])?
Answer: 0

Question: What about the “Nutsedge plant response rating” value (purple nutsedge; [1]) of the same compound?
Answer: 0

Question: And the “Nutsedge plant response rating” value (purple nutsedge; [2])?
Answer: 0

Question: What about the “Plant response rating, Nutsedge” value (purple nutsedge; [3]) of the same compound?
Answer: 0

Question: And the “Nutsedge plant response rating” value (purple nutsedge; [6])?
Answer: 0

Question: What about the “Plant response rating (0 to 10; 0 is no effect, 10 is complete control), Nutsedge” value (purple nutsedge; Rate 250 g/ha, Postemergence) of the same compound?
Answer: 0

Question: And the “Nutsedge plant response rating” value (purple nutsedge; [7])?
Answer: 0
